The values below are quoted from earlier work in patent publication US7067586B2, “Methods of making ABA-type block copolymers having a random block of hydrophobic and hydrophilic monomers” (Symyx Technologies, Inc., priority 2000, dated 2006).

For the series the following is noted: octanol-water partition coefficient of the monomer, approximate values from web-site estimation program or Hansch et al.

Where two headings read alike, the source gives them in different places.

Regarding `C=CC(=O)OCCO` [2-hydroxyethylacrylate], the “log P” value is recorded as “about −0.21”.

With `C=C(C)C(=O)OCCO` [2-hydroxyethylmethacrylate], the “log P” value is “about 0.47”.

As for `C=CC(=O)OCCOC` [2-methoxyethylacrylate], the “log P” value is given as “about 0.45”.

Consider `C=CC(=O)NC(C)(C)C` [N-t-butyl acrylamide], for which the “log P” value is on record as around 1.02.

With `C=CCO` [allyl alcohol], the “log P” value was around 0.17.

For the compound `C=C(C)C(=O)OCCN(C)C` [dimethyl aminoethyl methacrylate], the “log P” value is around 0.97.

With `C=C(C)C(=O)OCC(C)C` [isobutyl methacrylate], the “log P” value is around 2.66.

As to `C=C(CC(=O)O)C(=O)O` [itaconic acid], the “log P” value was around −0.34.

Regarding `O=C(O)/C=C\C(=O)O` [maleic acid], the lipophilicity (log P) was around −0.48.

With `C=C(C)C(N)=O` [methacrylamide], the “log P” value is around −0.26.

For `C=C(C)C(=O)O` [methacrylic acid], the “log P” value was around 0.93.

As to `C=C(C)C(=O)OC` [methyl methacrylate], the “log P” value is listed as around 1.38.

Turning to `C=C(C)C(=O)OCCCC` [n-butyl methacrylate], the “log P” value is on record as around 2.36.

Take `C=Cc1ccccc1` [styrene]: the “log P” value is “about 2.95”.

Turning to `C=C(C)C(=O)OC(C)(C)C` [t-butyl methacrylate], the “log P” value was around 2.54.

With `C=CC(=O)OC(C)(C)C` [tert-butylacrylate], the “log P” value is “about 2.09”. Also, the “log P” value (listed as t-butyl acrylate) is reported as around 2.09.
